Measurements published in ChEMBL document CHEMBL4673292, “Design, synthesis and anticancer activity of 2-amidomethoxy-1,4-naphthoquinones and its conjugates with Biotin/polyamine” (Bioorg Med Chem Lett, 2021).

Key:
K562 = test: Antiproliferative activity against human K562 cells; format: functional, cell-based
T47D = test: Antiproliferative activity against human T47D cells; format: functional, cell-based
COLO 205 = test: Antiproliferative activity against human COLO205 cells; format: functional, cell-based
[1] = Selectivity index, ratio of IC50 for human CCD-18Co cells to IC50 for human K562 cells
[2] = Selectivity index, ratio of IC50 for human CCD-18Co cells to IC50 for human T47D cells
CCD-18Co = test: Cytotoxicity against human CCD-18Co cells; format: cell-based
[3] = Selectivity index, ratio of IC50 for human CCD-18Co cells to IC50 for human COLO 205 cells

SMILES	IC50 (K562)	IC50 (T47D)	IC50 (COLO 205)	Ratio IC50 [1]	Ratio IC50 [2]	IC50 (CCD-18Co)	Ratio IC50 [3]
CC(=O)NCCCCCCNC(=O)COC1=CC(=O)c2c(O)cccc2C1=O	2300 nM	1200 nM	2400 nM				
NCCNC(=O)COC1=CC(=O)c2c(O)cccc2C1=O	4100 nM	2800 nM	4700 nM				
O=C(CCCCC1SCC2NC(=O)NC21)NCCCCCCNC(=O)COC1=CC(=O)c2c(O)cccc2C1=O (centres undefined)	1100 nM	500 nM	1400 nM	>10	>10	9200 nM	>10
COC(=O)CCCCCNC(=O)COC1=CC(=O)c2c(O)cccc2C1=O	4900 nM	3600 nM	4400 nM				
NCCCC(=O)NCCCCNC(=O)COC1=CC(=O)c2c(O)cccc2C1=O.O=C(O)C(F)(F)F.O=C(O)C(F)(F)F	1700 nM	1700 nM	1200 nM	>10	>10	8300 nM	>10
NCC(CN)CCCCNC(=O)COC1=CC(=O)c2c(O)cccc2C1=O	5100 nM	6100 nM	5300 nM				
CC(C)(C)OC(=O)NCC(CCCCNC(=O)COC1=CC(=O)c2c(O)cccc2C1=O)NC(=O)OC(C)(C)C (centres undefined)	1100 nM	1100 nM	1600 nM				
O=C(CCCCC1SCC2NC(=O)NC21)NCCNC(=O)COC1=CC(=O)c2c(O)cccc2C1=O (centres undefined)		> 10000 nM	> 10000 nM				
O=C(COC1=CC(=O)c2c(O)cccc2C1=O)NCCCCCCO	3300 nM	3300 nM	2800 nM				
CC(C)(C)OC(=O)NCC(CCCCNC(=O)COC1=CC(=O)c2c(O)cccc2C1=O)CNC(=O)CCCCC1SCC2NC(=O)NC21 (racemic)	> 10000 nM	7900 nM					

More lines, main results first:

IC50 (K562)	IC50 (T47D)	IC50 (COLO 205)	SMILES	Ratio IC50 [1]	Ratio IC50 [2]	IC50 (CCD-18Co)	Ratio IC50 [3]
> 10000 nM	9600 nM	7300 nM	NCCCCC(CN)CNC(=O)COC1=CC(=O)c2c(O)cccc2C1=O (centres undefined)				
> 10000 nM	6500 nM	> 10000 nM	NCCCCCCNC(=O)COC1=CC(=O)c2ccccc2C1=O				
1500 nM	1200 nM	2300 nM	O=C1NC2CSC(CCCCC(=O)N3CCN(C(=O)COC4=CC(=O)c5ccccc5C4=O)CC3)C2N1 (centres undefined)				
1000 nM	300 nM	1300 nM	CC(C)(C)OC(=O)NCCCCCCNC(=O)COC1=CC(=O)c2c(O)cccc2C1=O	>10	>10	7300 nM	>10
500 nM	600 nM	800 nM	O=C(O)C(F)(F)F.O=C1C(OCC(=O)N2CCNCC2)=CC(=O)c2c(O)cccc21	>10	>10	8900 nM	>10
6700 nM	> 10000 nM	> 10000 nM	CC(C)(C)OC(=O)NCCCCCCNC(=O)COC1=CC(=O)c2ccccc2C1=O				
1200 nM	800 nM	2300 nM	CC(C)(C)OC(=O)N1CCN(C(=O)COC2=CC(=O)c3c(O)cccc3C2=O)CC1				
1100 nM	100 nM	1400 nM	CC(C)(C)OC(=O)NCCNC(=O)COC1=CC(=O)c2c(O)cccc2C1=O				
> 10000 nM	1800 nM	> 10000 nM	O=C(CCCCC1SCC2NC(=O)NC21)NCCCCCCNC(=O)COC1=CC(=O)c2ccccc2C1=O (centres undefined)				
1300 nM	1400 nM	3100 nM	CC(C)(C)OC(=O)NCCCCC(CNC(=O)COC1=CC(=O)c2c(O)cccc2C1=O)NC(=O)OC(C)(C)C (centres undefined)				
800 nM	600 nM	800 nM	NCCCCCCNC(=O)COC1=CC(=O)c2c(O)cccc2C1=O.O=C(O)C(F)(F)F	>10	>10	8600 nM	>10
5700 nM	4600 nM	> 10000 nM	CCCCCCCNC(=O)COC1=CC(=O)c2c(O)cccc2C1=O				
